molecular target: His-tagged N-terminal ATP binding domain (amino acid residues 9-236) of HSP90α (Homo sapiens, UniProt P07900); assay: HSP90 inhibitor binding potency: TRF competition binding assay; conditions: Table II; read-out: Hsp90 IC50 Range
How it was run: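 Competition against biotinylated radicicol for binding to the His-tagged 9-236 ATP domain of HSP90α: 2 h, room temperature, HEPES/MgCl2/KCl/BSA buffer. Streptavidin capture, then europium-labeled anti-His antibody and enhancement solution; europium counts give IC50.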

Compound	IC50
Cc1nc(N)nc2c1C(=O)CC(c1ccc(F)cc1-c1cccc(C(F)(F)F)n1)C2 (stereo not drawn) [Compound 279, 2-amino-7-[4-fluoro-2-(6-trifluoromethyl-pyridin-2-yl)-phenyl]-4-methyl-7,8-dihydro-6H-quinazolin-5-one]	< 1000 nM
Cc1nc(N)nc2c1C(=O)CC(c1ccc(F)cc1-c1nccnc1NCCO)C2 (stereo not drawn) [Compound 280, 2-amino-7-{4-fluoro-2-[3-(2-hydroxy-ethylamino)-pyrazin-2-yl]-phenyl}-4-methyl-7,8-dihydro-6H-quinazolin-5-one]	1000 to 10000 nM
COc1nccnc1-c1cc(F)ccc1C1CC(=O)c2c(C)nc(N)nc2C1 (stereo not drawn) [Compound 281, 2-amino-7-[4-fluoro-2-(3-methoxy-pyrazin-2-yl)-phenyl]-4-methyl-7,8-dihydro-6H-quinazolin-5-one]	< 1000 nM
CCOc1ncncc1-c1cc(F)ccc1C1CC(=O)c2c(C)nc(N)nc2C1 (stereo not drawn) [Compound 282, 2-amino-7-[2-(4-ethoxy-pyrimidin-5-yl)-4-fluoro-phenyl]-4-methyl-7,8-dihydro-6H-quinazolin-5-one]	< 1000 nM
COc1cccc(-c2ccc(F)cc2C2CC(=O)c3c(C)nc(N)nc3C2)n1 (stereo not drawn) [Compound 283, 2-amino-7-[5-fluoro-2-(6-methoxy-pyridin-2-yl)-phenyl]-4-methyl-7,8-dihydro-6H-quinazolin-5-one]	< 1000 nM
Cc1nc(N)nc2c1C(=O)CC(c1cc(F)ccc1-c1cncnc1)C2 (stereo not drawn) [Compound 284, 2-amino-7-(5-fluoro-2-pyrimidin-5-yl-phenyl)-4-methyl-7,8-dihydro-6H-quinazolin-5-one]	> 10000 nM
COc1ncccc1-c1ccc(F)cc1C1CC(=O)c2c(C)nc(N)nc2C1 (stereo not drawn) [Compound 285, 2-amino-7-[5-fluoro-2-(2-methoxy-pyridin-3-yl)-phenyl]-4-methyl-7,8-dihydro-6H-quinazolin-5-one]	< 1000 nM
COc1cncc(-c2ccc(F)cc2C2CC(=O)c3c(C)nc(N)nc3C2)n1 (stereo not drawn) [Compound 286, 2-amino-7-[5-fluoro-2-(6-methoxy-pyrazin-2-yl)-phenyl]-4-methyl-7,8-dihydro-6H-quinazolin-5-one]	1000 to 10000 nM
COc1nc(-c2cc(F)ccc2[C@@H]2CC(=O)c3c(C)nc(N)nc3C2)cnc1N [Compound 287, (S)-2-amino-7-[2-(5-amino-6-methoxy-pyrazin-2-yl)-4-fluoro-phenyl]-4-methyl-7,8-dihydro-6H-quinazolin-5-one]	< 1000 nM
COc1cnc(-c2cc(F)ccc2[C@@H]2CC(=O)c3c(C)nc(N)nc3C2)nc1OC [Compound 288, (S)-2-amino-7-[2-(4,5-dimethoxy-pyrimidin-2-yl)-4-fluoro-phenyl]-4-methyl-7,8-dihydro-6H-quinazolin-5-one]	< 1000 nM
COc1ccc(F)c(-c2scnc2C2CC(=O)c3c(C)nc(N)nc3C2)c1 (stereo not drawn) [Compound 289, 2-amino-7-[5-(2-fluoro-5-methoxy-phenyl)-thiazol-4-yl]-4-methyl-7,8-dihydro-6H-quinazolin-5-one]	1000 to 10000 nM
COc1ccccc1Oc1cc(F)ccc1C1CC(=O)c2c(C)nc(N)nc2C1 (stereo not drawn) [Compound 290, 2-amino-7-[4-fluoro-2-(2-methoxy-phenoxy)-phenyl]-4-methyl-7,8-dihydro-6H-quinazolin-5-one]	1000 to 10000 nM
COc1cccc(-c2scnc2C2CC(=O)c3c(C)nc(N)nc3C2)n1 (stereo not drawn) [Compound 291, 2-amino-7-[5-(6-methoxy-pyridin-2-yl)-thiazol-4-yl]-4-methyl-7,8-dihydro-6H-quinazolin-5-one]	< 1000 nM
Cc1nc(N)nc2c1C(=O)CC(c1ncsc1-c1cc(F)ccc1F)C2 (stereo not drawn) [Compound 292, 2-amino-7-[5-(2,5-difluoro-phenyl)-thiazol-4-yl]-4-methyl-7,8-dihydro-6H-quinazolin-5-one]	< 1000 nM
Cc1ccc(F)c(-c2scnc2C2CC(=O)c3c(C)nc(N)nc3C2)c1 (stereo not drawn) [Compound 293, 2-amino-7-[5-(2-fluoro-5-methyl-phenyl)-thiazol-4-yl]-4-methyl-7,8-dihydro-6H-quinazolin-5-one]	< 1000 nM
Cc1nc(N)nc2c1C(=O)CC(c1ncsc1-c1cccc(F)n1)C2 (stereo not drawn) [Compound 294, 2-amino-7-[5-(6-fluoro-pyridin-2-yl)-thiazol-4-yl]-4-methyl-7,8-dihydro-6H-quinazolin-5-one]	< 1000 nM
CNc1cccc(-c2cc(F)ccc2C2CC(=O)c3c(C)nc(N)nc3C2)n1 (stereo not drawn) [Compound 295, 2-amino-7-[4-fluoro-2-(6-methylamino-pyridin-2-yl)-phenyl]-4-methyl-7,8-dihydro-6H-quinazolin-5-one]	1000 to 10000 nM
CNc1cncc(-c2cc(F)ccc2C2CC(=O)c3c(C)nc(N)nc3C2)n1 (stereo not drawn) [Compound 296, 2-amino-7-[4-fluoro-2-(6-methylamino-pyrazin-2-yl)-phenyl]-4-methyl-7,8-dihydro-6H-quinazolin-5-one]	< 1000 nM
COc1cccc(-c2scnc2[C@H]2CC(=O)c3c(C)nc(N)nc3C2)n1 [Compound 297, (R)-2-amino-7-[5-(6-methoxy-pyridin-2-yl)-thiazol-4-yl]-4-methyl-7,8-dihydro-6H-quinazolin-5-one]	1000 to 10000 nM
COc1cccc(-c2scnc2[C@@H]2CC(=O)c3c(C)nc(N)nc3C2)n1 [Compound 298, (S)-2-amino-7-[5-(6-methoxy-pyridin-2-yl)-thiazol-4-yl]-4-methyl-7,8-dihydro-6H-quinazolin-5-one]	< 1000 nM

Continued, values first:

IC50	Compound
< 1000 nM	COc1nc(-c2cc(F)ccc2[C@H]2CC(=O)c3c(C)nc(N)nc3C2)ncc1Cl [Compound 299, (R)-2-amino-7-[2-(5-chloro-4-methoxy-pyrimidin-2-yl)-4-fluoro-phenyl]-4-methyl-7,8-dihydro-6H-quinazolin-5-one]
< 1000 nM	COc1nc(-c2cc(F)ccc2[C@@H]2CC(=O)c3c(C)nc(N)nc3C2)ncc1Cl [Compound 300, (S)-2-amino-7-[2-(5-chloro-4-methoxy-pyrimidin-2-yl)-4-fluoro-phenyl]-4-methyl-7,8-dihydro-6H-quinazolin-5-one]
< 1000 nM	COc1ccccc1-c1scnc1C1CC(=O)c2c(C)nc(N)nc2C1 (stereo not drawn) [Compound 301, 2-amino-7-[5-(2-methoxy-phenyl)-thiazol-4-yl]-4-methyl-7,8-dihydro-6H-quinazolin-5-one]
< 1000 nM	Cc1nc(N)nc2c1C(=O)CC(c1ncsc1-c1ccccc1F)C2 (stereo not drawn) [Compound 302, 2-amino-7-[5-(2-fluoro-phenyl)-thiazol-4-yl]-4-methyl-7,8-dihydro-6H-quinazolin-5-one]
< 1000 nM	COc1cncc(-c2scnc2C2CC(=O)c3c(C)nc(N)nc3C2)n1 (stereo not drawn) [Compound 303, 2-amino-7-[5-(6-methoxy-pyrazin-2-yl)-thiazol-4-yl]-4-methyl-7,8-dihydro-6H-quinazolin-5-one]
1000 to 10000 nM	COc1ccc(Cc2nc(N)nc3c2C(=O)CC(c2ccccc2)C3)cc1 (stereo not drawn) [Compound 304, 2-amino-4-(4-methoxy-benzyl)-7-phenyl-7,8-dihydro-6H-quinazolin-5-one]
> 10000 nM	Nc1nc(CCc2ccccc2)c2c(n1)CC(c1ccccc1)CC2=O (stereo not drawn) [Compound 305, 2-amino-4-phenethyl-7-phenyl-7,8-dihydro-6H-quinazolin-5-one]
1000 to 10000 nM	COc1cccc(Cc2nc(N)nc3c2C(=O)CC(c2ccccc2)C3)c1 (stereo not drawn) [Compound 306, 2-amino-4-(3-methoxy-benzyl)-7-phenyl-7,8-dihydro-6H-quinazolin-5-one]
1000 to 10000 nM	Nc1nc(Cc2ccc(F)cc2)c2c(n1)CC(c1ccccc1)CC2=O (stereo not drawn) [Compound 307, 2-amino-4-(4-fluoro-benzyl)-7-phenyl-7,8-dihydro-6H-quinazolin-5-one]
> 10000 nM	Nc1nc(Cc2cccc([N+](=O)[O-])c2)c2c(n1)CC(c1ccccc1)CC2=O (stereo not drawn) [Compound 308, 2-amino-4-(3-nitro-benzyl)-7-phenyl-7,8-dihydro-6H-quinazolin-5-one]
> 10000 nM	Nc1cccc(Cc2nc(N)nc3c2C(=O)CC(c2ccccc2)C3)c1 (stereo not drawn) [Compound 309, 2-amino-4-(3-amino-benzyl)-7-phenyl-7,8-dihydro-6H-quinazolin-5-one]
> 10000 nM	CC(=O)Nc1cccc(Cc2nc(N)nc3c2C(=O)CC(c2ccccc2)C3)c1 (stereo not drawn) [Compound 310, N-[3-(2-amino-5-oxo-7-phenyl-5,6,7,8-tetrahydro-quinazolin-4-ylmethyl)-phenyl]-acetamide]
> 10000 nM	Nc1nc(O)c2c(n1)CC(c1ccccc1)CC2=O (stereo not drawn) [Compound 311, 2-amino-4-hydroxy-7-phenyl-7,8-dihydro-6H-quinazolin-5-one]
< 1000 nM	COc1ccc(F)c(-c2cc(F)ccc2[C@@H]2CC(=O)c3c(C)nc(N)nc3C2)n1 [Compound 313, (S)-2-amino-7-[4-fluoro-2-(3-fluoro-6-methoxy-pyridin-2-yl)-phenyl]-4-methyl-7,8-dihydro-6H-quinazolin-5-one]
1000 to 10000 nM	COc1ccc(F)c(-c2cc(F)ccc2[C@H]2CC(=O)c3c(C)nc(N)nc3C2)n1 [Compound 314, (R)-2-amino-7-[4-fluoro-2-(3-fluoro-6-methoxy-pyridin-2-yl)-phenyl]-4-methyl-7,8-dihydro-6H-quinazolin-5-one]
> 10000 nM	CCc1nc(N)nc2c1C(=O)CC(c1ccc(F)cc1Br)C2 (stereo not drawn) [Compound 315, 2-amino-7-(2-bromo-4-fluoro-phenyl)-4-ethyl-7,8-dihydro-6H-quinazolin-5-one]
< 1000 nM	CCc1nc(N)nc2c1C(=O)CC(c1ccc(F)cc1-c1cccc(OC)n1)C2 (stereo not drawn) [Compound 316, 2-amino-4-ethyl-7-[4-fluoro-2-(6-methoxy-pyridin-2-yl)-phenyl]-7,8-dihydro-6H-quinazolin-5-one]
1000 to 10000 nM	CCc1nc(N)nc2c1C(=O)CC(c1ccc(F)cc1-c1cccnc1OC)C2 (stereo not drawn) [Compound 317, 2-amino-4-ethyl-7-[4-fluoro-2-(2-methoxy-pyridin-3-yl)-phenyl]-7,8-dihydro-6H-quinazolin-5-one]
< 1000 nM	CCc1nc(N)nc2c1C(=O)CC(c1ccc(F)cc1-c1cccnc1)C2 (stereo not drawn) [Compound 318, 2-amino-4-ethyl-7-(4-fluoro-2-pyridin-3-yl-phenyl)-7,8-dihydro-6H-quinazolin-5-one]

From US20070027150A1 (priority 2005, published 2007)
